{"source": "ChEMBL document CHEMBL5226361", "about": "“Marine Sponge-Derived Alkaloid Induces Mitochondrial Dysfunction and Inhibits the PI3K/AKT/mTOR Signaling Pathway against Burkitt's Lymphoma” (J Nat Prod, 2023)", "key": {"[1]": {"system": "Raji", "test": "Antiproliferative activity against human Raji cells assessed as inhibition of cell growth incubated for 48 hrs by CCK-8 assay", "type": "functional, cell-based"}, "[2]": {"system": "Raji", "test": "Induction of cell cycle arrest in human Raji cells assessed as accumulation of cells at G0/G1 phase at 5 uM incubated for 48 hrs by PI staining based flow cytometry analysis (reference value: 20.16%)", "type": "functional"}, "[3]": {"system": "Daudi", "test": "Induction of cell cycle arrest at G0/G1 phase in human Daudi cells assessed as downregulation of CDK2 protein expression at 0.75 to 3 uM incubated for 24 to 48 hrs by Western blot analysis", "type": "functional, cell-based", "conditions": "dose 0.75-3 µM, time 24-48 hrs"}, "[4]": {"system": "Daudi", "test": "Induction of cell cycle arrest at G0/G1 phase in human Daudi cells assessed as upregulation of p21 protein expression at 0.75 to 3 uM incubated for 24 to 48 hrs by Western blot analysis", "type": "functional, cell-based", "conditions": "dose 0.75-3 µM, time 24-48 hrs"}, "[5]": {"system": "Daudi", "test": "Induction of cell cycle arrest at G0/G1 phase in human Daudi cells assessed as upregulation of gamma-H2AX protein expression at 0.75 to 3 uM incubated for 24 to 48 hrs by Western blot analysis", "type": "functional, cell-based", "conditions": "dose 0.75-3 µM, time 24-48 hrs"}, "[6]": {"system": "Raji", "test": "Induction of cell cycle arrest at G0/G1 phase in human Raji cells assessed as downregulation of CyclinE1 protein expression at 1.25 to 5 uM incubated for 24 to 48 hrs by Western blot analysis", "type": "functional, cell-based", "conditions": "dose 1.25-5 µM, time 24-48 hrs"}, "[7]": {"system": "Raji", "test": "Induction of cell cycle arrest at G0/G1 phase in human Raji cells assessed as upregulation of gamma-H2AX protein expression at 1.25 to 5 uM incubated for 24 to 48 hrs by Western blot analysis", "type": "functional, cell-based", "conditions": "dose 1.25-5 µM, time 24-48 hrs"}, "[8]": {"system": "Daudi", "test": "Induction of cell cycle arrest in human Daudi cells assessed as G2 phase cells at 3 uM incubated for 24 hrs by PI staining based flow cytometry analysis (reference value: 25.92%)", "type": "functional"}, "[9]": {"system": "Daudi", "test": "Induction of cell cycle arrest in human Daudi cells assessed as S phase cells at 3 uM incubated for 24 hrs by PI staining based flow cytometry analysis (reference value: 49.79%)", "type": "functional"}, "[10]": {"system": "Daudi", "test": "Induction of apoptosis in human Daudi cells assessed as upregulation of cleaved caspase-9 expression at 0.75 to 3 uM incubated for 24 hrs by Western blot analysis", "type": "functional, cell-based", "conditions": "dose 0.75-3 µM"}, "[11]": {"system": "Daudi", "test": "Induction of apoptosis in human Daudi cells assessed as upregulation of cleaved PARP expression at 0.75 to 3 uM incubated for 24 hrs by Western blot analysis", "type": "functional, cell-based", "conditions": "dose 0.75-3 µM"}, "[12]": {"system": "Daudi", "test": "Induction of apoptosis in human Daudi cells assessed as downregulation of Bcl-xl expression at 0.75 to 3 uM incubated for 24 hrs by Western blot analysis", "type": "functional, cell-based", "conditions": "dose 0.75-3 µM"}, "[13]": {"system": "Daudi", "test": "Induction of apoptosis in human Daudi cells assessed as downregulation of Mcl-1 expression at 0.75 to 3 uM incubated for 24 hrs by Western blot analysis", "type": "functional, cell-based", "conditions": "dose 0.75-3 µM"}, "[14]": {"system": "Raji", "test": "Induction of apoptosis in human Raji cells assessed as downregulation of BCL-XL expression at 1.25 to 5 uM incubated for 24 hrs by Western blot analysis", "type": "functional, cell-based", "conditions": "dose 1.25-5 µM"}, "[15]": {"system": "Raji", "test": "Induction of apoptosis in human Raji cells assessed as downregulation of Mcl-1 expression at 1.25 to 5 uM incubated for 24 hrs by Western blot analysis", "type": "functional, cell-based", "conditions": "dose 1.25-5 µM"}, "[16]": {"system": "Raji", "test": "Induction of apoptosis in human Raji cells assessed as effect on caspase-8 protein expression at 1.25 to 5 uM incubated for 24 hrs by Western blot analysis", "type": "functional, cell-based", "conditions": "dose 1.25-5 µM"}, "[17]": {"system": "Raji", "test": "Induction of apoptosis in human Raji cells assessed as nuclear condensation incubated for 48 hrs by Hoechst 33258/PI staining based fluorescence microscopic analysis", "type": "functional, cell-based", "conditions": "dose 1.25-5 µM"}, "[18]": {"system": "Raji", "test": "Induction of mitochondrial oxidative damage in human Raji cells assessed as increase in intracellular mitochondrial superoxide generation at 5 uM incubated for 1 to 6 hrs by MitoSOX red dye based flow cytometric analysis", "type": "functional, cell-based", "conditions": "time 1-6 hrs"}, "[19]": {"system": "Daudi", "test": "Induction of mitochondrial dysfunction in human Daudi cells assessed as decrease in ATP-5J protein expression at 1.5 to 3 uM incubated for 48 hrs by Western blot analysis", "type": "functional, cell-based", "conditions": "dose 1.5-3 µM"}, "[20]": {"system": "Raji", "test": "Induction of mitochondrial dysfunction in human Raji cells assessed as decrease in ATP-5J protein expression at 2.5 to 5 uM incubated for 48 hrs by Western blot analysis", "type": "functional, cell-based", "conditions": "dose 2.5-5 µM"}, "[21]": {"system": "Daudi", "test": "Induction of mitochondrial respiratory chain damage in human Daudi cells assessed as decrease in NDUFV2 protein expression at 1.5 to 3 uM incubated for 48 hrs by Western blot analysis", "type": "functional, cell-based", "conditions": "dose 1.5-3 µM"}, "[22]": {"system": "Daudi", "test": "Induction of mitochondrial respiratory chain damage in human Daudi cells assessed as decrease in CYC1 protein expression at 1.5 to 3 uM incubated for 48 hrs by Western blot analysis", "type": "functional, cell-based", "conditions": "dose 1.5-3 µM"}, "[23]": {"system": "Daudi", "test": "Effect on total AKT protein level in human Daudi cells at 0.75 to 3 uM incubated for 24 hrs by Western blot analysis", "type": "functional, cell-based", "conditions": "dose 0.75-3 µM"}, "[24]": {"test": "Inhibition of PI3K/AKT/mTOR signalling pathway in human Daudi cells assessed as inhibition of AKT phosphorylation at […] residue incubated for 24 hrs by Western blot analysis", "type": "cell-based", "conditions": "dose 0.75-3 µM"}, "[25]": {"test": "Inhibition of PI3K/AKT/mTOR signalling pathway in human Daudi cells assessed as inhibition of mTOR phosphorylation incubated for 24 hrs by Western blot analysis", "type": "cell-based", "conditions": "dose 0.75-3 µM"}, "[26]": {"system": "Raji", "test": "Effect on total mTOR protein level in human Raji cells at 1.25 to 5 uM incubated for 24 hrs by Western blot analysis", "type": "functional, cell-based", "conditions": "dose 1.25-5 µM"}, "[27]": {"test": "Inhibition of PI3K/AKT/mTOR signalling pathway in human Daudi cells assessed as increase in ratio of AKT phosphorylation at […] residue to total AKT protein level at 3 uM incubated for 12 hrs in the presence of YS49 by Western blot analysis", "type": "cell-based"}, "[28]": {"test": "Inhibition of PI3K/AKT/mTOR signalling pathway in human Raji cells assessed as increase in ratio of AKT phosphorylation at […] residue to total AKT protein level at 5 uM incubated for 12 hrs in the presence of YS49 by Western blot analysis", "type": "cell-based"}, "[29]": {"system": "Daudi", "test": "Induction of apoptosis in human Daudi cells assessed as early apoptotic cells at 3 uM incubated for 24 hrs by Annexin V-FITC/PI staining based flow cytometric analysis (reference value: 1.7%)", "type": "functional"}, "[30]": {"system": "Daudi", "test": "Induction of apoptosis in human Daudi cells assessed as early apoptotic cells at 3 uM incubated for 24 hrs in the presence of YS49 by Annexin V-FITC/PI staining based flow cytometric analysis (reference value: 1.7%)", "type": "functional"}, "[31]": {"system": "Raji", "test": "Induction of apoptosis in human Raji cells assessed as viable cells at 5 uM incubated for 24 hrs in the presence of YS49 by Annexin V-FITC/PI staining based flow cytometric analysis (reference value: 97.8%)", "type": "functional", "conditions": "read-out: Activity"}, "[32]": {"system": "Raji", "test": "Induction of apoptosis in human Raji cells assessed as early apoptotic cells at 5 uM incubated for 24 hrs in the presence of YS49 by Annexin V-FITC/PI staining based flow cytometric analysis (reference value: 0.8%)", "type": "functional"}, "[33]": {"system": "Raji", "test": "Induction of apoptosis in human Raji cells assessed as late apoptotic cells at 5 uM incubated for 24 hrs in the presence of YS49 by Annexin V-FITC/PI staining based flow cytometric analysis (reference value: 0.0%)", "type": "functional"}, "[34]": {"system": "Raji", "test": "Induction of apoptosis in human Raji cells assessed as necrotic cells at 5 uM incubated for 24 hrs in the presence of YS49 by Annexin V-FITC/PI staining based flow cytometric analysis (reference value: 1.5%)", "type": "functional"}}, "note": "Activity calls are given as the source filed them. The calls are words filed in the database; no cut-off is given here."}
{"smiles": "COc1c(OC)c2c3c(nccc3c1-c1cc(C)cc(C)c1)C(c1cc(C)cc(C)c1)=CN2", "values": [{"measurement": "IC50", "setting": "[1]", "result": 2070, "unit": "nM"}, {"measurement": "Activity", "setting": "[2]", "result": 40.65, "unit": "%"}, {"measurement": "Activity", "setting": "[3]", "result": "Active"}, {"measurement": "Activity", "setting": "[4]", "result": "Active"}, {"measurement": "Activity", "setting": "[5]", "result": "Active"}, {"measurement": "Activity", "setting": "[6]", "result": "Active"}, {"measurement": "Activity", "setting": "[7]", "result": "Active"}, {"measurement": "Activity", "setting": "[8]", "result": 20.27, "unit": "%"}, {"measurement": "Activity", "setting": "[9]", "result": 30.03, "unit": "%"}, {"measurement": "Activity", "setting": "[10]", "result": "Active"}, {"measurement": "Activity", "setting": "[11]", "result": "Active"}, {"measurement": "Activity", "setting": "[12]", "result": "Active"}, {"measurement": "Activity", "setting": "[13]", "result": "Active"}, {"measurement": "Activity", "setting": "[14]", "result": "Active"}, {"measurement": "Activity", "setting": "[15]", "result": "Active"}, {"measurement": "Activity", "setting": "[16]", "result": "inactive"}, {"measurement": "Activity", "setting": "[17]", "result": "Dose-Dependent Effect"}, {"measurement": "Activity", "setting": "[18]", "result": "Active"}, {"measurement": "Activity", "setting": "[19]", "result": "Active"}, {"measurement": "Activity", "setting": "[20]", "result": "Active"}, {"measurement": "Activity", "setting": "[21]", "result": "Active"}, {"measurement": "Activity", "setting": "[22]", "result": "Active"}, {"measurement": "Activity", "setting": "[23]", "result": "inactive"}, {"measurement": "inhibition", "setting": "[24]", "result": "Dose-Dependent Effect"}, {"measurement": "inhibition", "setting": "[25]", "result": "Dose-Dependent Effect"}, {"measurement": "Activity", "setting": "[26]", "result": "inactive"}, {"measurement": "inhibition", "setting": "[27]", "result": "inactive"}, {"measurement": "inhibition", "setting": "[28]", "result": "inactive"}, {"measurement": "Activity", "setting": "[29]", "result": 18.6, "unit": "%"}, {"measurement": "Activity", "setting": "[30]", "result": 16.7, "unit": "%"}, {"measurement": "viability at 5 µM", "setting": "[31]", "result": 67, "unit": "%"}, {"measurement": "Activity", "setting": "[32]", "result": 11.2, "unit": "%"}, {"measurement": "Activity", "setting": "[33]", "result": 0.9, "unit": "%"}, {"measurement": "Activity", "setting": "[34]", "result": 20.8, "unit": "%"}]}
